# Tests used:
# [1] = test system: Respiratory syncytial virus; assay: Antiviral activity against Respiratory syncytial virus infected cell system assessed as inhibition of viral replication; format: functional, organism-based; conditions: human respiratory syncytial virus
# Candida = assay: Antimicrobial activity against Candida; format: functional
# Casein kinase 2 = Casein kinase 2 (Rattus norvegicus, UniProt P19139); assay: Inhibition of Rattus norvegicus (rat) liver cytosolic CK2
# PC-3 = assay: Cytotoxicity against Homo sapiens (human) PC3 cells by Alamar blue assay; format: functional, cell-based
# HT-29 = assay: Cytotoxicity against Homo sapiens (human) HT-29 cells by Alamar blue assay; format: functional, cell-based
# HL-60 = assay: Cytotoxicity against Homo sapiens (human) HL60 cells by Alamar blue assay; format: functional, cell-based
# MCF7 = assay: Cytotoxicity against Homo sapiens (human) MCF7 cells by Alamar blue assay; format: functional, cell-based
# Trichomonas vaginalis = assay: Antimicrobial activity against Trichomonas vaginalis; format: functional, organism-based
# Giardia intestinalis = assay: Antimicrobial activity against Giardia intestinalis; format: functional, organism-based; conditions: Giardia duodenalis
# Progesterone receptor = target: T1, Progesterone receptor (Homo sapiens, UniProt P06401); assay: Binding affinity to Homo sapiens (human) progesterone receptor
# T1 sequence (P06401 whole entry): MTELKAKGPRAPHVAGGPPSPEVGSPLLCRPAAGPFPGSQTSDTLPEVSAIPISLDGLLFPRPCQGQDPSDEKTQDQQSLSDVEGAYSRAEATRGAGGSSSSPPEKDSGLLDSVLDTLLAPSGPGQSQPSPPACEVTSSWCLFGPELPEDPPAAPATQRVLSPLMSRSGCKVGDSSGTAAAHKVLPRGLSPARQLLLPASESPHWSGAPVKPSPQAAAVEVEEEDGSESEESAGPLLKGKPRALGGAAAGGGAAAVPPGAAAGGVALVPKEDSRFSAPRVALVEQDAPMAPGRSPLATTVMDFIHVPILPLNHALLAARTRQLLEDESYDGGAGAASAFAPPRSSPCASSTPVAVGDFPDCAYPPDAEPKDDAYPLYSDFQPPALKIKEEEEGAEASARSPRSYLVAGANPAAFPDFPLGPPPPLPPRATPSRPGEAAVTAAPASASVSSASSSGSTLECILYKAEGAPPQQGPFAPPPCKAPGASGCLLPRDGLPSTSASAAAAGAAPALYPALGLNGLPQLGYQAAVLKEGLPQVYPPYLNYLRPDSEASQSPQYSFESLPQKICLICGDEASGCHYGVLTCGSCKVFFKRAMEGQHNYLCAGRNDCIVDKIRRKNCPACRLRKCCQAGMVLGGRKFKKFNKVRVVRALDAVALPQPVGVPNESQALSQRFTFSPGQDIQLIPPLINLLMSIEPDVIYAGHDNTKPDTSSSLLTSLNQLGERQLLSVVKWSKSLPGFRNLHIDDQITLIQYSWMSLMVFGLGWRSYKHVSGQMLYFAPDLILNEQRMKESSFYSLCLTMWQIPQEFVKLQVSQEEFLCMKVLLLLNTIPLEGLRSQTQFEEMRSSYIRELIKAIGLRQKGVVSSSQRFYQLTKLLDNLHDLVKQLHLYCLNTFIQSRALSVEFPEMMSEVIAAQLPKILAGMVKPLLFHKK
# [2] = Inhibition of GABA-A receptor benzodiazepine site (unknown origin); design: species or system Homo sapiens
# Plasmodium falciparum = assay: Antimicrobial activity against Plasmodium falciparum; format: functional, organism-based
# [3] = test system: Respiratory syncytial virus; assay: Ratio of ribavirin EC50 to compound EC50 for Respiratory syncytial virus infected cell system assessed as inhibition of viral replication; format: functional
# Aorta [4] = assay: Vasorelaxant activity in Rattus norvegicus (rat) aortic rings; format: functional, tissue-based
# Aorta [5] = assay: Vasorelaxant activity in endothelium-denuded Rattus norvegicus (rat) aortic rings; format: functional, tissue-based
# Casein kinase 2, sequence (P67874 whole entry): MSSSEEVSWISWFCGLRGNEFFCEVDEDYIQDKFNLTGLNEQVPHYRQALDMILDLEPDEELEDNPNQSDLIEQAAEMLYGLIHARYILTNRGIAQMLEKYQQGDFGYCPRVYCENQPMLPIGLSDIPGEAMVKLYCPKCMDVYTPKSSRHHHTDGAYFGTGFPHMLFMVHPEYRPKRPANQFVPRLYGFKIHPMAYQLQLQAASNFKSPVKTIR
# Casein kinase 2, sequence (P19139 whole entry): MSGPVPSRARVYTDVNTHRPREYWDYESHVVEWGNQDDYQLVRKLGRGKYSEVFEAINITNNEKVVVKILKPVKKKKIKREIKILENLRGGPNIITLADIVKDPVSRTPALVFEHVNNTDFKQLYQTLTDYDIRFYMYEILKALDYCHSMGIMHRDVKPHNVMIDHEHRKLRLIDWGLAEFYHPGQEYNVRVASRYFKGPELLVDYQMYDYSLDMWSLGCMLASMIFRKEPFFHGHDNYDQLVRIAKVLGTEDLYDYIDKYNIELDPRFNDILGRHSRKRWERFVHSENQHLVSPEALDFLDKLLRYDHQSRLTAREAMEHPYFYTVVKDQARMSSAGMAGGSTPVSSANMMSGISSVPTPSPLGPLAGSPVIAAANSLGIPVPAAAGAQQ
structure (smiles),measurement,setting,value
NC(=O)c1ncn([C@@H]2O[C@H](CO)[C@@H](O)[C@H]2O)n1 [RIBAVIRIN],EC50,[1],15000 nM
CCCCn1c(-c2ccc(F)cc2)nc2cc(C#N)ccc21,MIC,Candida,3130 ng/mL
FC(F)(F)c1nc2c(Br)c(Br)c(Br)c(Br)c2[nH]1,Ki,Casein kinase 2,600 nM
O=C(O)c1cccc2[nH]c(-c3cccc4oc(-c5ccccc5O)nc34)nc12,IC50,PC-3,7000 nM
same,IC50,HT-29,7000 nM
same,IC50,HL-60,7000 nM
same,IC50,MCF7,7000 nM
Sc1nc2c(Br)cc(Br)cc2[nH]1,IC50,Trichomonas vaginalis,1.5 ng/mL
same,IC50,Giardia intestinalis,6 ng/mL
Sc1nc2ccc(-n3ccnc3)cc2n1C1CCCC1,Ki,Progesterone receptor,28 nM
CCOCN1C2=C(C(=O)Nc3ccccc3F)C(=O)CCN2c2ccc(F)cc21,IC50,[2],0.1 nM
N=C(N)c1ccc(-c2ccc(O)c(-c3nc4ccc(C(=N)N)cc4[nH]3)c2)cc1,IC50,Plasmodium falciparum,2.1 nM
Cc1ccc(O)c(Cn2c(NC3CCN(CCN)CC3)nc3c(C)cccc32)n1 [JNJ 2408068],Ratio EC50,[3],100000
same,EC50,[1],0.16 nM
O=[N+]([O-])c1ccc2nc(-c3ccccc3O)[nH]c2c1,IC50,Aorta [4],950 nM
same,IC50,Aorta [5],2010 nM
COc1ccc(-c2nc3cc([N+](=O)[O-])ccc3[nH]2)cc1,IC50,Aorta [4],1410 nM
same,IC50,Aorta [5],3610 nM

# From ChEMBL document CHEMBL3044857, “Benzimidazole: a medicinally important heterocyclic moiety” (Med Chem Res, 2012)
